The subject of the data set is CCRIS mutagenicity, Ames/micronucleus/aberration tests. In words: CCRIS mutagenicity studies.
The mark [1] stands for this setting: Test System: AMES SALMONELLA TYPHIMURIUM, Strain/Indicator: TA98, Metabolic Activation: NONE, Method: PREINCUBATION
Where [2] appears, read: Test System: AMES SALMONELLA TYPHIMURIUM, Strain/Indicator: TA98, Metabolic Activation: RAT, LIVER, S-9, AROCLOR 1254, Method: PREINCUBATION
Where [3] appears, read: Test System: AMES SALMONELLA TYPHIMURIUM, Strain/Indicator: TA100, Metabolic Activation: NONE, Method: PREINCUBATION
Setting [4] is: Test System: AMES SALMONELLA TYPHIMURIUM, Strain/Indicator: TA100, Metabolic Activation: RAT, LIVER, S-9, AROCLOR 1254, Method: PREINCUBATION
[5] abbreviates: Test System: AMES SALMONELLA TYPHIMURIUM, Strain/Indicator: TA102, Metabolic Activation: NONE, Method: PREINCUBATION
Where [6] appears, read: Test System: AMES SALMONELLA TYPHIMURIUM, Strain/Indicator: TA97, Metabolic Activation: NONE, Method: PREINCUBATION
[7] abbreviates: Test System: AMES SALMONELLA TYPHIMURIUM, Strain/Indicator: TA1535, Metabolic Activation: NONE, Method: PREINCUBATION

Active and inactive are the calls of the source. No rule for the calls is given here.

Regarding `Cc1cnc(C)c(C)n1`, the mutagenic call under setting [1] is “inactive; negative”; the mutagenic call under setting [2] is “inactive; negative”; the mutagenic call under setting [3] is “inactive; negative”; the mutagenic call under setting [4] is “inactive; negative”; the mutagenic call under setting [5] is “inactive; negative”; the mutagenic call (Test System: AMES SALMONELLA TYPHIMURIUM, Strain/Indicator: TA102, Metabolic Activation: RAT, LIVER, S-9, AROCLOR 1254, Method: PREINCUBATION) is “inactive; negative”.

With `O=[N+]([O-])c1ccc(Nc2ccc(Nc3ccccc3)c(S(=O)(=O)O)c2)c([N+](=O)[O-])c1`, the mutagenic call was “active; positive” (Test System: AMES SALMONELLA TYPHIMURIUM, Strain/Indicator: TA97, Metabolic Activation: HAMSTER, LIVER, S-9, AROCLOR 1254, Method: PREINCUBATION); “active; positive” under setting [6]; “active; positive” (Test System: AMES SALMONELLA TYPHIMURIUM, Strain/Indicator: TA97, Metabolic Activation: RAT, LIVER, S-9, AROCLOR 1254, Method: PREINCUBATION); “active; positive” (Test System: AMES SALMONELLA TYPHIMURIUM, Strain/Indicator: TA98, Metabolic Activation: HAMSTER, LIVER, S-9, AROCLOR 1254, Method: PREINCUBATION); “active; positive” under setting [1]; “active; positive” under setting [2]. Further, the mutagenic call (Test System: AMES SALMONELLA TYPHIMURIUM, Strain/Indicator: TA100, Metabolic Activation: HAMSTER, LIVER, S-9, AROCLOR 1254, Method: PREINCUBATION) was “active; positive”; the mutagenic call under setting [3] is “active; positive”; the mutagenic call under setting [4] is “active; positive”; the mutagenic call (Test System: AMES SALMONELLA TYPHIMURIUM, Strain/Indicator: TA1535, Metabolic Activation: HAMSTER, LIVER, S-9, AROCLOR 1254, Method: PREINCUBATION) was “inactive; negative”; the mutagenic call under setting [7] was “inactive; negative”; the mutagenic call (Test System: AMES SALMONELLA TYPHIMURIUM, Strain/Indicator: TA1535, Metabolic Activation: RAT, LIVER, S-9, AROCLOR 1254, Method: PREINCUBATION) is “inactive; negative”.

Regarding `c1ccc2c(c1)-c1c(c3ccccc3c3ccccc13)C1NC21` (centres undefined), the mutagenic call by setting is: (Test System: AMES SALMONELLA TYPHIMURIUM, Strain/Indicator: TA98, Metabolic Activation: NONE, Method: PREINCUBATION (KCL-CONTAINING MEDIUM)) “active; positive”; (Test System: AMES SALMONELLA TYPHIMURIUM, Strain/Indicator: TA98, Metabolic Activation: NONE, Method: PREINCUBATION (KCL-FREE MEDIUM)) “active; positive”; (Test System: AMES SALMONELLA TYPHIMURIUM, Strain/Indicator: TA100, Metabolic Activation: NONE, Method: PREINCUBATION (KCL-CONTAINING OR KCL-FREE MEDIA)) “active; positive”.

For `CC[N+](=O)[O-]`, the mutagenic call under setting [1] is “inactive; negative”; the mutagenic call (Test System: AMES SALMONELLA TYPHIMURIUM, Strain/Indicator: TA98, Metabolic Activation: RAT, LIVER, S-9, KANECHLOR 500, Method: PREINCUBATION) was “inactive; negative”; the mutagenic call under setting [3] is “inactive; negative”; the mutagenic call (Test System: AMES SALMONELLA TYPHIMURIUM, Strain/Indicator: TA100, Metabolic Activation: RAT, LIVER, S-9, KANECHLOR 500, Method: PREINCUBATION) was “inactive; negative”; the mutagenic call under setting [5] is “inactive; negative”; the mutagenic call (Test System: E. COLI, Strain/Indicator: WP2 UVRA (PKM101), Metabolic Activation: NONE, Method: PREINCUBATION) was “inactive; negative”. Further, the mutagenic call (Test System: E. COLI, Strain/Indicator: WP2 UVRA (PKM101), Metabolic Activation: RAT, LIVER, S-9, KANECHLOR 500, Method: PREINCUBATION) is “inactive; negative”.

Take `c1ccc(CSCc2ccccc2)cc1`: the mutagenic call by setting is: (Test System: AMES SALMONELLA TYPHIMURIUM, Strain/Indicator: TA97, Metabolic Activation: HAMSTER, LIVER, S-9, AROCLOR 1254 (10%), Method: PREINCUBATION) “inactive; negative”; (Test System: AMES SALMONELLA TYPHIMURIUM, Strain/Indicator: TA97, Metabolic Activation: HAMSTER, LIVER, S-9, AROCLOR 1254 (30%), Method: PREINCUBATION) “inactive; negative”; under setting [6], “inactive; negative”; (Test System: AMES SALMONELLA TYPHIMURIUM, Strain/Indicator: TA97, Metabolic Activation: RAT, LIVER, S-9, AROCLOR 1254 (10%), Method: PREINCUBATION) “inactive; negative”; (Test System: AMES SALMONELLA TYPHIMURIUM, Strain/Indicator: TA97, Metabolic Activation: RAT, LIVER, S-9, AROCLOR 1254 (30%), Method: PREINCUBATION) “inactive; negative”; (Test System: AMES SALMONELLA TYPHIMURIUM, Strain/Indicator: TA98, Metabolic Activation: HAMSTER, LIVER, S-9, AROCLOR 1254 (10%), Method: PREINCUBATION) “inactive; negative”. Besides, the mutagenic call (Test System: AMES SALMONELLA TYPHIMURIUM, Strain/Indicator: TA98, Metabolic Activation: HAMSTER, LIVER, S-9, AROCLOR 1254 (30%), Method: PREINCUBATION) was “inactive; negative”; the mutagenic call under setting [1] is “inactive; negative”; the mutagenic call (Test System: AMES SALMONELLA TYPHIMURIUM, Strain/Indicator: TA98, Metabolic Activation: RAT, LIVER, S-9, AROCLOR 1254 (10%), Method: PREINCUBATION) is “inactive; negative”; the mutagenic call (Test System: AMES SALMONELLA TYPHIMURIUM, Strain/Indicator: TA98, Metabolic Activation: RAT, LIVER, S-9, AROCLOR 1254 (30%), Method: PREINCUBATION) is “inactive; negative”; the mutagenic call (Test System: AMES SALMONELLA TYPHIMURIUM, Strain/Indicator: TA100, Metabolic Activation: HAMSTER, LIVER, S-9, AROCLOR 1254 (10%), Method: PREINCUBATION) was “inactive; negative”; the mutagenic call (Test System: AMES SALMONELLA TYPHIMURIUM, Strain/Indicator: TA100, Metabolic Activation: HAMSTER, LIVER, S-9, AROCLOR 1254 (30%), Method: PREINCUBATION) is “inactive; negative”. Further, the mutagenic call is, setting by setting: under setting [3], “inactive; negative”; (Test System: AMES SALMONELLA TYPHIMURIUM, Strain/Indicator: TA100, Metabolic Activation: RAT, LIVER, S-9, AROCLOR 1254 (10%), Method: PREINCUBATION) “inactive; negative”; (Test System: AMES SALMONELLA TYPHIMURIUM, Strain/Indicator: TA100, Metabolic Activation: RAT, LIVER, S-9, AROCLOR 1254 (30%), Method: PREINCUBATION) “inactive; negative”; (Test System: AMES SALMONELLA TYPHIMURIUM, Strain/Indicator: TA1535, Metabolic Activation: HAMSTER, LIVER, S-9, AROCLOR 1254 (10%), Method: PREINCUBATION) “inactive; negative”; (Test System: AMES SALMONELLA TYPHIMURIUM, Strain/Indicator: TA1535, Metabolic Activation: HAMSTER, LIVER, S-9, AROCLOR 1254 (30%), Method: PREINCUBATION) “inactive; negative”; under setting [7], “inactive; negative”. Also, the mutagenic call (Test System: AMES SALMONELLA TYPHIMURIUM, Strain/Indicator: TA1535, Metabolic Activation: RAT, LIVER, S-9, AROCLOR 1254 (10%), Method: PREINCUBATION) is “inactive; negative” and the mutagenic call (Test System: AMES SALMONELLA TYPHIMURIUM, Strain/Indicator: TA1535, Metabolic Activation: RAT, LIVER, S-9, AROCLOR 1254 (30%), Method: PREINCUBATION) is “inactive; negative”.

On to `c1ccc2c(CCC3CO3)cccc2c1` (centres undefined), for which the mutagenic call was “active; positive” under setting [3]; “active; positive” (Test System: AMES SALMONELLA TYPHIMURIUM, Strain/Indicator: TA100, Metabolic Activation: NONE, Method: STANDARD PLATE); “active; positive” under setting [7]; “active; positive” (Test System: AMES SALMONELLA TYPHIMURIUM, Strain/Indicator: TA1535, Metabolic Activation: NONE, Method: STANDARD PLATE).

Consider `CC1(C)Cc2ncccc2-c2nc(N)sc21`, for which the mutagenic call (Test System: AMES SALMONELLA TYPHIMURIUM, Strain/Indicator: TA1538, Metabolic Activation: RAT, LIVER, S-9, AROCLOR 1254, Method: STANDARD PLATE) is “active; positive”.

With `C=C(C)C1CC=C(C=O)CC1` (centres undefined), the mutagenic call (End Point: IN VIVO MICRONUCLEUS, Test System: BONE MARROW POLYCHROMATIC ERYTHROCYTES, Species: MOUSE, Strain/Sex: DDY/MALE, Route: IP) was “inactive; negative”.

These data come from PubChem BioAssay AID1259407 (Chemical Carcinogenesis Research Information System (CCRIS), 2018).
